Test results: article PMC11949107, “Polyunsaturated fatty acids and their endocannabinoid-related metabolites activity at human TRPV1 and TRPA1 ion channels expressed in HEK-293 cells” (PeerJ, 2025)
Where “and” joins values, the source holds several entries; their conditions need not be identical. Equal entries are not always repeated.

Legend:
human TRPV1 [1] = target: T1, human TRPV1 (Homo sapiens, UniProt Q8NER1); experiment: Calcium 5 dye [Ca]i assay in HEK-293 Flp-In T-REx cells expressing TRPV1 (agonist response); format: cell-based; details: for Change in Ca5 fluorescence, individual experiments (CRC raw data): TRPV1 cells
T1 construct: Life Technologies (cells); host or cells: Flp-In T-REx HEK-293
Method in brief: (§1)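 Tetracycline-induced (1 µg ml^−1, 4 h) HEK-293 T-REx cells loaded with Calcium 5 dye plus 1.25 mM probenecid for 1 h; agonist added after 1 min baseline (0.1% DMSO final), fluorescence (485/525 nm) read every 2 s for 5 min at 37 °C. Response as % change from baseline, solvent-subtracted; EC50/Emax from three-parameter logistic fit, given as pEC50.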

human TRPA1 = target: T2, human TRPA1 (Homo sapiens, UniProt O75762); experiment: Calcium 5 dye [Ca]i assay in HEK-293 Flp-In T-REx cells expressing TRPA1 (agonist response); format: cell-based; details: for [Ca]i response (change in fluorescence), individual replicates: sheet Figure 4
T2 construct: Life Technologies (cells); host or cells: Flp-In T-REx HEK-293
Method in brief: as §1

HEK-293 EV cells = experiment: Calcium 5 dye [Ca]i assay in HEK-293 empty vector (EV) cells; format: cell-based, human; details: 10 µM; HEK-293 EV cells; percentage of predrug baseline
Method in brief: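 Tetracycline at 1 µg ml^−1 was added 4 h before testing; cells were loaded with Calcium 5 dye for 1 h and read at 37 °C, with drug added after 1 min baseline (final 0.1% DMSO). The response was the % change from the 60 s baseline after solvent subtraction, and EC50/Emax came from a three-parameter logistic fit, reported as pEC50.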

human TRPV1 [2] = target: T1, human TRPV1; experiment: Pre-incubation with PUFAs or capsazepine, then capsaicin (10 nM) response in HEK-293 TRPV1 cells; format: cell-based
Protocol: Intracellular calcium [Ca]i levels were assessed using the calcium 5 kit from Molecular Devices (# R8186, Sunnyvale, CA, USA) on a FlexStation 3 Microplate Reader (Molecular Devices, Sunnyvale, CA, USA). […] Probenecid (cat # 50027; Biotium) which helps to prevent expulsion of calcium indicator from the cells was added to a final concentration of 1.25 mM. 90 µL of the dye were loaded into each well of the plate and incubated for 1 h before reading in the FlexStation 3 at 37 °C. Fluorescence was recorded every 2 s (λ excitation = 485 nm, λ emission = 525 nm) for 5 min. After 1 min of baseline recording, 20 µL of the drug, dissolved in HBSS with 1% dimethyl sulfoxide (DMSO) (cat # D2650; Sigma-Aldrich, Melbourne, Australia) was added (final DMSO concentration was 0.1% in well). […]

human TRPV1 [3] = target: T1, human TRPV1; experiment: PMA (phorbol ester) potentiation of TRPV1 responses in HEK-293 TRPV1 cells; format: cell-based; design: key to Drugs alone, individual experiments: change in [Ca]i as % of pre-drug baseline

T1 sequence (Q8NER1 whole entry): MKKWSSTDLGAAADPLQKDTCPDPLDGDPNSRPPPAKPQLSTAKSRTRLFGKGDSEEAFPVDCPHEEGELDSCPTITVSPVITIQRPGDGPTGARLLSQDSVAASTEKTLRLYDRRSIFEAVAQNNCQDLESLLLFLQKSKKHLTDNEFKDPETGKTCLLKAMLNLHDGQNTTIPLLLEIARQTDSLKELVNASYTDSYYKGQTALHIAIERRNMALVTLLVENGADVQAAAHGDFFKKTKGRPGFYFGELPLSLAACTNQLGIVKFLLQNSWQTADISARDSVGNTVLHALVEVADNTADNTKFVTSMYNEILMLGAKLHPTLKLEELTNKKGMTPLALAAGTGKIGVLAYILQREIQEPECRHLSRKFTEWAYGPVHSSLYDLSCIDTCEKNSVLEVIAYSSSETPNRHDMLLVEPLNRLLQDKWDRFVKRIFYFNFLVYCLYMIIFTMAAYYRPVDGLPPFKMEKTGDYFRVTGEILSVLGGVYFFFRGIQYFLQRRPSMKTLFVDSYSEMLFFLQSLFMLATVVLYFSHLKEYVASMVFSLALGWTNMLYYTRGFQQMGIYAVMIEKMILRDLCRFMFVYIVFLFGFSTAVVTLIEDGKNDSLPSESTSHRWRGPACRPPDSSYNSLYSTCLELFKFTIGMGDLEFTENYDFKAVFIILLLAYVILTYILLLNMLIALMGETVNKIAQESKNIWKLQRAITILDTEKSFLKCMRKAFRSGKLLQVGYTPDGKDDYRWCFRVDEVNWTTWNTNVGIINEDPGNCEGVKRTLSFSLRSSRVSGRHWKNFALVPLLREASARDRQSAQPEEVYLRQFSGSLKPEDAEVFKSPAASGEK
T2 sequence (O75762 whole entry): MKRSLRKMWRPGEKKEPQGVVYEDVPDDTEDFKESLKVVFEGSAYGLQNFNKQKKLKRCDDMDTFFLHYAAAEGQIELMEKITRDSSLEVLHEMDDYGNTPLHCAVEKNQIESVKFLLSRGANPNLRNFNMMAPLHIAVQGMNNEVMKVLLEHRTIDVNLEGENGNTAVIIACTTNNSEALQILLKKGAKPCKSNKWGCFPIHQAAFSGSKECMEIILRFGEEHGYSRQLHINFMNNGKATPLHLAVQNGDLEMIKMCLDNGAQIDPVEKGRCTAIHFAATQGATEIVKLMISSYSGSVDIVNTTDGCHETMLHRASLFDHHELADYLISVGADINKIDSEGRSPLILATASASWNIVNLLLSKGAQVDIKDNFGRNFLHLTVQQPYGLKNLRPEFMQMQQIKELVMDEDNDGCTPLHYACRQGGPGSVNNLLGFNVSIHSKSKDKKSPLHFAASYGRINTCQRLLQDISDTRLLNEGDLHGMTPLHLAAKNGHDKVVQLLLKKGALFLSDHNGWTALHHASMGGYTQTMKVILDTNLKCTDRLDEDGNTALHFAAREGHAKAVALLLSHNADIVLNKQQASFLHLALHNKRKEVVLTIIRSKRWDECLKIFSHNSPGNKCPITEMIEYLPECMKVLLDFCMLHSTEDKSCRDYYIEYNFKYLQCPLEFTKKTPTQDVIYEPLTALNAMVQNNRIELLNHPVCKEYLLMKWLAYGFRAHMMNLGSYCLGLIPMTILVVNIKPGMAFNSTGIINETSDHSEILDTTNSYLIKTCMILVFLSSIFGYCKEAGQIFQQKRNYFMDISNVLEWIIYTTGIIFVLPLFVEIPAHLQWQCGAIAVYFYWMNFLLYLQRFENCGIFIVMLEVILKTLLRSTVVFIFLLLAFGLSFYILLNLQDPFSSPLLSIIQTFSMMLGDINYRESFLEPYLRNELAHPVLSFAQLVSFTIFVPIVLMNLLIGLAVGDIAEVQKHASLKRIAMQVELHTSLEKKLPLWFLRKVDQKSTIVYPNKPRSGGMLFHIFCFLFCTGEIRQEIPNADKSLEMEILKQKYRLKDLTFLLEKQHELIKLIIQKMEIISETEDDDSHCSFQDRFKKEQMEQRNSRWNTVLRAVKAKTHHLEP

CC/C=C\C/C=C\C/C=C\C/C=C\C/C=C\CCCC(=O)O [EPA, eicosapentaenoic acid]
Elevation of [Ca]i in HEK-293 TRPV1 cells compared with HEK-293 EV cells (human TRPV1 [1]; 10 µM): did not produce a notable change
Change of Ca5 fluorescence, Mean ± SEM, TRPV1 (10 µM) (human TRPV1 [1]; 10 µM, HEK-293 TRPV1 cells, percentage of predrug baseline): 16 ± 5%
Emax at 30 µM (human TRPV1 [1]; HEK293, read-out: Emax ± SEM % TRPV1 (30 µM)): 34 ± 5%
Change in Ca5 fluorescence, individual experiments (CRC raw data) (human TRPV1 [1]; log concentration -4.52288 (M)): 41.79 and 35.9904 and 24.921 and 28.9142 and 55.0634 and 19.9806
Change in Ca5 fluorescence, individual experiments (CRC raw data) (human TRPV1 [1]; log concentration -5 (M)): 41.213 and 9.61 and 11.6653 and 7.673 and 15.0259 and 7.993
Change in Ca5 fluorescence, individual experiments (CRC raw data) (human TRPV1 [1]; log concentration -5.52288 (M)): 10.434 and 4.673 and 8.042 and 0.3072
Change in Ca5 fluorescence, individual experiments (CRC raw data) (human TRPV1 [1]; log concentration -6 (M)): 6.783 and 4.449 and 9.084 and 5.542 and 3.583 and -0.1759
Change in Ca5 fluorescence, individual experiments (CRC raw data) (human TRPV1 [1]; log concentration -6.52288 (M)): 4.775 and 5.179 and 8.63 and 0.2635
Change in Ca5 fluorescence, individual experiments (CRC raw data) (human TRPV1 [1]; log concentration -7 (M)): 4.257 and 3.906 and 5.164 and 0.2974
Elevation of [Ca]i in HEK-293 TRPA1 cells compared with HEK-293 EV cells (human TRPA1; 10 µM (cinnamaldehyde 300 µM)): did not produce a change
Change of Ca5 fluorescence, Mean ± SEM, TRPA1 (10 µM) (human TRPA1; 10 µM, HEK-293 TRPA1 cells, percentage of predrug baseline): 58 ± 42%
TRPA1 activation at the highest concentration tested (human TRPA1; 30 µM): activated TRPA1
Emax at 30 µM (human TRPA1; HEK293, read-out: Emax ± SEM % TRPA1 (30 µM), highest tested concentration (30 µM) or derived from concentration-response curves (cinnamaldehyde)): 232 ± 67%
[Ca]i response (change in fluorescence), individual replicates (human TRPA1; concentration -4.52288 (log)): 377.608 and 117.826 and 193.269 and 60.6586 and 155.376 and 486.394
[Ca]i response (change in fluorescence), individual replicates (human TRPA1; concentration -5 (log)): 17.4998 and 14.5924 and 9.889 and 12.76 and 22.7093 and 269.088
[Ca]i response (change in fluorescence), individual replicates (human TRPA1; concentration -5.52288 (log)): 2.522 and 3.13 and 3.703 and 4.731
[Ca]i response (change in fluorescence), individual replicates (human TRPA1; concentration -6 (log)): 1.85 and 3.994 and 3.577 and 9.657 and 3.961 and 6.207
[Ca]i response (change in fluorescence), individual replicates (human TRPA1; concentration -6.52288 (log)): 1.392 and 2.613 and 2.728 and 11.1533
[Ca]i response (change in fluorescence), individual replicates (human TRPA1; concentration -7 (log)): 0.08029 and 3.966 and 3.106 and 5.407
Change of Ca5 fluorescence, Mean ± SEM, EV (10 µM) (HEK-293 EV cells): 14 ± 5%
Effect of pre-treatment on the capsaicin response (human TRPV1 [2]; 10 µM, 5 min exposure, then capsaicin 10 nM): did not affect
Post-capsaicin: response to subsequent capsaicin addition, individual experiments (human TRPV1 [2]; capsaicin 10 nM after 5 min drug 10 µM, TRPV1 cells): 203.333 and 227.843 and 146.783 and 264.915 and 237.782 and 308.835
Pre-capsaicin: response to first drug, individual experiments (human TRPV1 [2]; drug 10 µM for 5 min, TRPV1 cells): 16.1107 and 14.1511 and 10.793 and 4.456 and 14.6833 and 13.0981
TRPV1 response after exposure to PMA (human TRPV1 [3]; PMA 100 nM, 5 min pretreatment): only observed when a phorbol ester was present
Drugs post-PMA, individual experiments (human TRPV1 [3]; PUFA 10 µM after PMA 100 nM for 5 min, response to PMA alone subtracted): 49.2015 and 39.5321 and 37.0404 and 36.9714 and 31.5302 and 32.9212
Drugs alone, individual experiments (human TRPV1 [3]; PUFA 10 µM without PMA pretreatment, TRPV1 cells): 7.525 and 11.4184 and 9.766 and 10.5311 and 6.999 and 3.475 and 2.716 and 6.787 and 18.8884
